Measurements: patent publication US10434147B2, “Treatment type 2 diabetes mellitus patients” (Sanofi-Aventis Deutschland GmbH, priority 2015, dated 2019)

Assays:
[1] = tested on: Patients with Type 2 Diabetes Insufficiently Controlled with Insulin Glargine with or without Metformin; experiment: Body weight, 26-week study; type: in vivo, human; conditions: for Body weight, Change from baseline to Week 26 (LOCF), LS Mean (SE) / Body weight change to Week 26, LS Mean difference (SE) of Lixisenatide vs. the labelled insulin glulisine arm: ANCOVA; for Body weight, Change from baseline to Week 26 (LOCF), LS Mean (SE) / Body weight change to Week 26, LS Mean difference (SE) of Lixisenatide vs. the labelled insulin glulisine arm / Body weight, Baseline, Mean (SD) / Body weight, Baseline, Median / Body weight, Week 26 (LOCF), Mean (SD) / Body weight, Week 26 (LOCF), Median / Body weight, Change from baseline to Week 26 (LOCF), Mean (SD) / Body weight, Change from baseline to Week 26 (LOCF), Median: mITT population; for Body weight change to Week 26, LS Mean difference (SE) of Lixisenatide vs. the labelled insulin glulisine arm: p <.0001; for Body Weight, BL mean ± SD / Body Weight, Week 26 (LOCF) mean ± SD / Body Weight, LS mean ± SE change from BL / Body Weight, LS mean treatment difference (lixisenatide vs the labelled arm): mITT, Example 2 table; for Body weight, Baseline, Mean (SD) / Body weight, Baseline, Median: Baseline (before IMP); for Body Weight, LS mean ± SE change from BL / Body Weight, LS mean treatment difference (lixisenatide vs the labelled arm): Week 26; for Body Weight, LS mean treatment difference (lixisenatide vs the labelled arm): p < 0.0001
Text: (§1) FIG. 6—Graphical study design. ^1 Insulin glargine should be injected subcutaneously once daily at dinner or breakfast time (according to patient's/investigators' preference). […] Meal used for insulin glulisine dosing should remain the same throughout the 26-week treatment period. ^4 Injection of insulin glulisine prior to breakfast, lunch and dinner.
(§2) Co-primary endpoints at 26 weeks were (1) non-inferiority (95% CI upper bound <0.4%) in HbA1c reduction with LIXI vs GLU-1 and (2) for LIXI vs GLU-3, either non-inferiority in HbA1c reduction (2a) OR superiority (one-sided α≤0.025) in body weight change (2b). FPG, PPG, IG dose, composite outcomes, AEs, and hypoglycemia were assessed.

[2] = tested on: Patients with Type 2 Diabetes Insufficiently Controlled with Insulin Glargine with or without Metformin; experiment: Fasting plasma glucose, 26-week study; type: in vivo, human; conditions: for Fasting plasma glucose change to Week 26, LS Mean difference (SE) of Lixisenatide vs. the labelled insulin glulisine arm / Fasting plasma glucose, Change from baseline to Week 26 (LOCF), LS Mean (SE): ANCOVA; for Fasting plasma glucose change to Week 26, LS Mean difference (SE) of Lixisenatide vs. the labelled insulin glulisine arm / Fasting plasma glucose, Change from baseline to Week 26 (LOCF), LS Mean (SE) / Fasting plasma glucose, Baseline, Mean (SD) / Fasting plasma glucose, Baseline, Median / Fasting plasma glucose, Week 26 (LOCF), Mean (SD) / Fasting plasma glucose, Week 26 (LOCF), Median / Fasting plasma glucose, Change from baseline to Week 26 (LOCF), Mean (SD) / Fasting plasma glucose, Change from baseline to Week 26 (LOCF), Median: mITT population; for FPG, BL (end run-in) mean ± SD / FPG, Screening (start run-in) mean ± SD / FPG, Week 26 (LOCF) mean ± SD / FPG, LS mean treatment difference (lixisenatide vs the labelled arm) / FPG, LS mean ± SE change from BL: mITT; for Fasting plasma glucose, Baseline, Mean (SD) / Fasting plasma glucose, Baseline, Median: Baseline (before IMP); for FPG, LS mean treatment difference (lixisenatide vs the labelled arm) / FPG, LS mean ± SE change from BL: Week 26
Text: as §1, §2

[3] = tested on: Patients with Type 2 Diabetes Insufficiently Controlled with Insulin Glargine with or without Metformin; design: species or system human; conditions: in vivo
Text: Clinical symptoms that are considered to result from a hypoglycemic episode are, e.g., increased sweating, nervousness, asthenia/weakness, tremor, dizziness, increased appetite, palpitations, headache, sleep disorder, confusion, seizures, unconsciousness, coma.
as §2

[4] = tested on: Patients with Type 2 Diabetes Insufficiently Controlled with Insulin Glargine with or without Metformin; type: in vivo, human; conditions: for Reason for treatment discontinuation: Lack of efficacy: Randomized population, HbA1c above […] at Week 12 or later; for Reason for treatment discontinuation: Adverse event: human, in vivo

Substance | Body weight, Change from baseline to Week 26 (LOCF), LS Mean (SE) [1] | Body weight change to Week 26, LS Mean difference (SE) of Lixisenatide vs. the labelled insulin glulisine arm [1] | Body Weight, BL mean ± SD [1] | Body weight, Baseline, Mean (SD) [1] | Body weight, Baseline, Median [1] | Body weight, Week 26 (LOCF), Mean (SD) [1] | Body weight, Week 26 (LOCF), Median [1] | Body Weight, Week 26 (LOCF) mean ± SD [1] | Body Weight, LS mean ± SE change from BL [1] | Body Weight, LS mean treatment difference (lixisenatide vs the labelled arm) [1] | Body weight, Change from baseline to Week 26 (LOCF), Mean (SD) [1] | Body weight, Change from baseline to Week 26 (LOCF), Median [1] | Fasting plasma glucose change to Week 26, LS Mean difference (SE) of Lixisenatide vs. the labelled insulin glulisine arm [2] | Fasting plasma glucose, Change from baseline to Week 26 (LOCF), LS Mean (SE) [2] | FPG, BL (end run-in) mean ± SD [2] | Fasting plasma glucose, Baseline, Mean (SD) [2] | Fasting plasma glucose, Baseline, Median [2] | FPG, Screening (start run-in) mean ± SD [2] | FPG, Week 26 (LOCF) mean ± SD [2] | Fasting plasma glucose, Week 26 (LOCF), Mean (SD) [2] | also measured
Insulin Glulisine TID: insulin glulisine three times daily, added to insulin glargine ± metformin (comparator arm) | 1.37 (0.271) kg | −1.99 (0.305) kg | 90.0 ± 17.2 kg | 90.00 (17.21) kg | 88.70 kg | 91.29 (17.27) kg | 90.50 kg | 91.3 ± 17.3 kg | 1.4 ± 0.3 kg | -2.0 kg | 1.29 (2.80) kg | 1.20 kg | −0.17 (0.158) mmol/L | −0.06 (0.140) mmol/L | 120 ± 34 mg/dL | 6.65 (1.89) mmol/L | 6.40 mmol/L | 171 ± 53 mg/dL | 121 ± 36 mg/dL | 6.71 (2.02) mmol/L | Fasting plasma glucose, Week 26 (LOCF), Median [2]: 6.50 mmol/L; FPG, LS mean treatment difference (lixisenatide vs the labelled arm) [2]: -3 mg/dL; FPG, LS mean ± SE change from BL [2]: -1 ± 3 mg/dL; Fasting plasma glucose, Change from baseline to Week 26 (LOCF), Mean (SD) [2]: 0.05 (2.47) mmol/L; Fasting plasma glucose, Change from baseline to Week 26 (LOCF), Median [2]: -0.20 mmol/L; Any symptomatic hypoglycemia: Number of events [3]: 600; Any symptomatic hypoglycemia: Number of events per 100 patient years [3]: 410.4 per 100 patient years; Any symptomatic hypoglycemia: Number of patients with events per 100 patient years [3]: 90.3 per 100 patient years; Documented Symptomatic Hypoglycemia at Week 26, % pts [3]: 44.6 (p = 0.001) % pts; Documented Symptomatic Hypoglycemia at Week 26, No. of events [3]: 595; Documented Symptomatic Hypoglycemia at Week 26, No. of events/pt years [3]: 4.1 events/pt years; Severe Hypoglycemia, no. of pts with events [3]: 0; Reason for treatment discontinuation: Lack of efficacy [4]: 0 n (%); Reason for treatment discontinuation: Adverse event [4]: 5 (1.7%) n (%)
Insulin Glulisine QD: insulin glulisine once daily, added to insulin glargine ± metformin (comparator arm) | 1.03 (0.276) kg | −1.66 (0.305) kg | 88.4 ± 15.9 kg | 88.37 (15.88) kg | 88.00 kg | 89.31 (16.27) kg | 88.40 kg | 89.3 ± 16.3 kg | 1.0 ± 0.3 kg | -1.7 kg | 0.94 (2.50) kg | 0.90 kg | −0.01 (0.157) mmol/L | −0.21 (0.142) mmol/L | 123 ± 36 mg/dL | 6.85 (1.99) mmol/L | 6.50 mmol/L | 167 ± 52 mg/dL | 120 ± 35 mg/dL | 6.66 (1.94) mmol/L | Fasting plasma glucose, Week 26 (LOCF), Median [2]: 6.40 mmol/L; FPG, LS mean treatment difference (lixisenatide vs the labelled arm) [2]: 0 mg/dL; FPG, LS mean ± SE change from BL [2]: -4 ± 3 mg/dL; Fasting plasma glucose, Change from baseline to Week 26 (LOCF), Mean (SD) [2]: −0.19 (2.52) mmol/L; Fasting plasma glucose, Change from baseline to Week 26 (LOCF), Median [2]: -0.10 mmol/L; Any symptomatic hypoglycemia: Number of events [3]: 395; Any symptomatic hypoglycemia: Number of events per 100 patient years [3]: 266.4 per 100 patient years; Any symptomatic hypoglycemia: Number of patients with events per 100 patient years [3]: 78.9 per 100 patient years; Documented Symptomatic Hypoglycemia at Week 26, % pts [3]: 37.5 (p = 0.144) % pts; Documented Symptomatic Hypoglycemia at Week 26, No. of events [3]: 384; Documented Symptomatic Hypoglycemia at Week 26, No. of events/pt years [3]: 2.6 events/pt years; Severe Hypoglycemia, no. of pts with events [3]: 2; Reason for treatment discontinuation: Lack of efficacy [4]: 4 (1.3%) n (%); Reason for treatment discontinuation: Adverse event [4]: 2 (0.7%) n (%)
